In patent US20200223889A1, “Bicyclic Compounds Capable of Binding to Melanocortin 4 Receptor” (Novo Nordisk A/S, priority 2017, published 2020):
pEC50, pKi: −log10 of the molar value. Where two headings read alike, the source gives them in different places. Positions of bridges follow the written chain, without caps; N, C: chain ends. Non-standard residues stand in square brackets, D forms with d. Residues, ends and D or L forms follow the SMILES beside them. Hyp = O=C(O)[C@@H]1C[C@@H](O)CN1; Thz = O=C(O)[C@@H]1CSCN1; Aib = CC(C)(N)C(=O)O; GABA = NCCCC(=O)O

Tests used:
human MC4R [1] = target: T1, human MC4R (Homo sapiens, UniProt P32245); assay: 125NDP-α-MSH competitive binding to membranes of BHK cells expressing human MC4 receptor (filtration assay)
T1 construct: expressed in transfected cells
In short: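 Displacement of ^125NDP-α-MSH (apx. […] final) was measured by filtration after 2 h at 25 °C, using diluted membranes of stably transfected BHK cells in pH 7.0 HEPES buffer. Compounds spanned 1 μM to 0.001 nM; binding curves were analysed by non-linear regression.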

human MC4R [2] = target: T1, human MC4R; assay: Functional cAMP assay (CisBio HTRF) in BHK cells expressing human MC4R; format: cell-based; details: for MC1R/MC4R cAMP EC50 ratio: MC1R cAMP EC50 divided by MC4R cAMP EC50
In short: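 Compound working solutions, 10-fold dilutions from 2 μM at twice final strength, in buffer containing 1 mM IBMX, were incubated 30 min at 25 °C with BHK cells stably carrying human MC4R or MC1R. Accumulated cAMP was then detected by competitive HTRF after 1 h at 25 °C and fitted by non-linear regression.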

human MC1R = target: T2, human MC1R (Homo sapiens, UniProt Q01726); assay: Functional cAMP assay (CisBio HTRF) in BHK cells expressing human MC1R; format: cell-based
T2 construct: expressed in transfected cells
Experimental: In order to assess the potency of the compounds on human MC1R and human MC4R cAMP signalling was measured.
cAMP induction was measured by c-AMPdynamic2 assay, HTRF 62AM4PEC system from CisBio for the human MC1R and human MC4R according to the protocol provided by the vendor. BHK cells expressing the human MC1 or MC4 receptor were generated by stable transfection with expression vectors encoding the cDNA of either MC1R or MC4R.
In details; 25 μl compound—or standard solution were added in the respective wells. Compound was reconstituted in buffer (DMEM w/o phenol red, 10 mM
Hepes, lx Glutamine, 0.1% OV-albumin1, 1 mM IBMX) and serially diluted starting at 2 μM, 10-fold seven times. Dilutions were carried out in the same aforementioned buffer to the desired working concentration ranges (2× higher than the final concentration). 25 μl cell solution was then added and allowed to incubate for 30 min while lightly shaking, at 25° C. […] The provided components for the assay were reconstituted according to the CisBio assay protocol “3.1 supplied reagents and preparation procedure” in MilliQ purification system H2O and diluted 1:20 in lysis buffer. 25 μl cAMP-d2 and 25 μl Cryptate conjugate were added to all wells.
Plates were centrifuged at 1500 rpm for 30 sec and incubated for 1 h, lightly shaking, at 25° C. in a hotel stacker. The plates were read on Mithras LB 940 provided by Berthold Technologies The data were analysed by non-linear regression analysis of binding curves, using the Windows™ program GraphPad™ Prism (GraphPad Software, USA).
The latter is used when no full curve can be obtained in the concentration ranges indicated above.

[3] = human MC4R, BHK cell membranes, 125NDP-α-MSH radioligand, read-out: MC4R binding Ki
[4] = BHK cells expressing human MC4R, '>' = highest dose used with no response, read-out: MC4R cAMP EC50
[5] = BHK cells expressing human MC1R, '>' = highest dose used with no response, read-out: MC1R cAMP EC50

T1 sequence (P32245 whole entry): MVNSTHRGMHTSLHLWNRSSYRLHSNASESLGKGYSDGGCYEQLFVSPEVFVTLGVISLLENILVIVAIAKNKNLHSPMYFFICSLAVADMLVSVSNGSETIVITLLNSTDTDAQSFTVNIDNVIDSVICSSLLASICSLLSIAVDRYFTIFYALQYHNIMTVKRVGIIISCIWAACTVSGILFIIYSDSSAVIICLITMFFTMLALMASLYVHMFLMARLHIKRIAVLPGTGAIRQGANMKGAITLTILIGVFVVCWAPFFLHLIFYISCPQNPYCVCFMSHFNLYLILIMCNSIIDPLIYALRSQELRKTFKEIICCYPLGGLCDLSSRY
T2 sequence (Q01726 whole entry): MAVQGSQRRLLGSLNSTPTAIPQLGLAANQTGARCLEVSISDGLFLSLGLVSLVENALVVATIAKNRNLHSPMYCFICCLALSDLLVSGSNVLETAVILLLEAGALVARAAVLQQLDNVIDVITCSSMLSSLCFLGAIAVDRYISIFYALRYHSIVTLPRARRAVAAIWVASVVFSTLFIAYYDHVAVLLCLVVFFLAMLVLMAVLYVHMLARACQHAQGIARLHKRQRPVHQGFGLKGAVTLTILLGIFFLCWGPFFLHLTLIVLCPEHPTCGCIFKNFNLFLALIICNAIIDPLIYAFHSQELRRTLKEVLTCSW

Row | Compound | pKi (human MC4R [1]; [3]) | pEC50 (human MC4R [2]; [4]) | MC1R/MC4R cAMP EC50 ratio (human MC4R [2]) | pEC50 (human MC1R; [5]) | pKi (human MC4R [1]) | pEC50 (human MC4R [2]) | pEC50 (human MC1R)
1 | C[C@@H]1NC(=O)[C@@H]2CSCSC[C@H](NC(=O)[C@H](Cc3c[nH]c4ccccc34)NC(=O)[C@H](CCCNC(=N)N)NC(=O)[C@@H](Cc3ccccc3)NC(=O)[C@H](Cc3c[nH]cn3)NC1=O)C(=O)N[C@@H](C)C(=O)N[C@@H](Cc1c[nH]cn1)C(=O)N[C@H](Cc1ccccc1)C(=O)N[C@@H](CCCNC(=N)N)C(=O)N[C@@H](Cc1c[nH]c3ccccc13)C(=O)N2 [Chem. 8, c[c[Cys-Ala-His-D-Phe-Arg-Trp-Cys]- Ala-His-D-Phe-Arg-Trp]] | 10.10 | 10.70 | 88 | 8.75 |  |  | 
2 | C[C@H]1NC(=O)[C@@H]2CSSC[C@H](NC(=O)[C@H](Cc3c[nH]c4ccccc34)NC(=O)[C@H](CCCNC(=N)N)NC(=O)[C@@H](Cc3ccccc3)NC(=O)[C@H](Cc3c[nH]cn3)NC1=O)C(=O)N[C@H](C)C(=O)N[C@@H](Cc1c[nH]cn1)C(=O)N[C@H](Cc1ccccc1)C(=O)N[C@@H](CCCNC(=N)N)C(=O)N[C@@H](Cc1c[nH]c3ccccc13)C(=O)N2 [Chem. 10, c[c[Cys-D-Ala-His-D-Phe-Arg-Trp- Cys]-D-Ala-His-D-Phe-Arg-Trp]] |  |  | 98 |  | 9.89 | 10.30 | 8.31
3 | C[C@@H]1NC(=O)[C@H](C)NC(=O)[C@@H]2CSSC[C@H](NC(=O)[C@H](Cc3c[nH]c4ccccc34)NC(=O)[C@H](C)NC(=O)[C@@H](Cc3ccccc3)NC1=O)C(=O)N[C@@H](C)C(=O)N[C@@H](Cc1c[nH]cn1)C(=O)N[C@H](Cc1ccccc1)C(=O)N[C@@H](CCCNC(=N)N)C(=O)N[C@@H](Cc1c[nH]c3ccccc13)C(=O)N2 [Chem. 11, c[[Cys-Ala-His-D-Phe-Arg-Trp-Cys]- Ala-Ala-D-Phe-Ala-Trp]] (cyclo(AA[dF]AWCAH[dF]RWC); disulfide 6-12) |  |  | 72 |  | 9.60 | 10.52 | 8.66
4 | C[C@@H]1NC(=O)[C@@H]2CSSC[C@H](NC(=O)[C@H](Cc3c[nH]c4ccccc34)NC(=O)[C@H](CCCNC(=N)N)NC(=O)[C@@H](Cc3ccccc3)NC(=O)[C@H](Cc3c[nH]cn3)NC1=O)C(=O)N[C@@H](CCCNC(=N)N)C(=O)N[C@@H](Cc1ccccc1)C(=O)N[C@@H](Cc1ccccc1)C(=O)N[C@@H](CC(N)=O)C(=O)N[C@@H](C)C(=O)N2 [Chem. 12, c[c[Cys-Ala-His-D-Phe-Arg-Trp-Cys]- Arg-Phe-Phe-Asn-Ala]] (cyclo(ACAH[dF]RWCRFFN); disulfide 2-8) |  |  | 57 |  | 9.55 | 10.15 | 8.40
5 | C[C@@H]1NC(=O)[C@@H]2CSSC[C@H](NC(=O)[C@H](Cc3c[nH]c4ccccc34)NC(=O)[C@H](CCCNC(=N)N)NC(=O)[C@@H](Cc3ccccc3)NC(=O)[C@H](Cc3c[nH]cn3)NC1=O)C(=O)N[C@@H](CCCNC(=N)N)C(=O)N[C@@H](Cc1ccccc1)C(=O)N[C@@H](Cc1ccccc1)C(=O)N[C@@H](CC(N)=O)C(=O)N[C@@H](C)C(=O)N[C@@H](Cc1ccccc1)C(=O)N2 [Chem. 13, c[c[Cys-Ala-His-D-Phe-Arg-Trp-Cys]- Arg-Phe-Phe-Asn-Ala-Phe]] (cyclo(AFCAH[dF]RWCRFFN); disulfide 3-9) |  |  | 64 |  | 9.59 | 10.00 | 8.20
6 | C[C@@H]1NC(=O)[C@@H]2CSSC[C@H](NC(=O)[C@H](Cc3c[nH]c4ccccc34)NC(=O)[C@H](CCCCNC(=N)N)NC(=O)[C@@H](Cc3ccccc3)NC(=O)[C@H](Cc3c[nH]cn3)NC1=O)C(=O)N[C@@H](C)C(=O)N[C@@H](Cc1c[nH]cn1)C(=O)N[C@H](Cc1ccccc1)C(=O)N[C@@H](CCCCNC(=N)N)C(=O)N[C@@H](Cc1c[nH]c3ccccc13)C(=O)N2 [Chem. 22, c[c[Cys-Ala-His-D-Phe-HArg-Trp- Cys]-Ala-His-D-Phe-HArg-Trp]] | 10.22 | 10.70 | 11 | 9.66 |  |  | 
7 | N=C(N)NCCC[C@@H]1NC(=O)[C@@H](Cc2ccccc2)NC(=O)[C@H](Cc2c[nH]cn2)NC(=O)[C@H]2CCCN2C(=O)[C@@H]2CSSC[C@H](NC(=O)[C@H](Cc3c[nH]c4ccccc34)NC1=O)C(=O)N1CCC[C@@H]1C(=O)N[C@@H](Cc1c[nH]cn1)C(=O)N[C@H](Cc1ccccc1)C(=O)N[C@@H](CCCNC(=N)N)C(=O)N[C@@H](Cc1c[nH]c3ccccc13)C(=O)N2 [Chem. 33, c[c[Cys-D-Pro-His-D-Phe-Arg-Trp- Cys]-D-Pro-His-D-Phe-Arg-Trp]] (cyclo(C[dP]H[dF]RWC[dP]H[dF]RW); disulfide 1-7) | 7.56 | 7.70 |  | < 9.00 |  |  | 
8 | N=C(N)NCCC[C@@H]1NC(=O)[C@@H](Cc2ccccc2)NC(=O)[C@H](Cc2c[nH]cn2)NC(=O)CCCNC(=O)[C@@H]2CSSC[C@H](NC(=O)[C@H](Cc3c[nH]c4ccccc34)NC1=O)C(=O)NCCCC(=O)N[C@@H](Cc1c[nH]cn1)C(=O)N[C@H](Cc1ccccc1)C(=O)N[C@@H](CCCNC(=N)N)C(=O)N[C@@H](Cc1c[nH]c3ccccc13)C(=O)N2 [Chem. 35, c[c[Cys-GABA-His-D-Phe-Arg-Trp- Cys]-GABA-His-D-Phe-Arg-Trp]] (cyclo(C[GABA]H[dF]RWC[GABA]H[dF]RW); disulfide 1-7) | 10.52 | 11.00 | 28 | 9.55 |  |  | 
9 | CC1(C)NC(=O)[C@@H]2CSSC[C@H](NC(=O)[C@H](Cc3c[nH]c4ccccc34)NC(=O)[C@H](CCCNC(=N)N)NC(=O)[C@@H](Cc3ccccc3)NC(=O)[C@@H]3C[C@@H](O)CN3C1=O)C(=O)NC(C)(C)C(=O)N1C[C@H](O)C[C@H]1C(=O)N[C@H](Cc1ccccc1)C(=O)N[C@@H](CCCNC(=N)N)C(=O)N[C@@H](Cc1c[nH]c3ccccc13)C(=O)N2 [Chem. 38, c[c[Cys-Aib-Hyp-D-Phe-Arg-Trp- Cys]-Aib-Hyp-D-Phe-Arg-Trp]] (cyclo([Aib][Hyp][dF]RWC[Aib][Hyp][dF]RWC); disulfide 6-12) | 8.25 | 8.37 |  | < 8.43 |  |  | 
10 | C[C@@H]1NC(=O)[C@@H]2CSSC[C@H](NC(=O)[C@H](Cc3c[nH]c4ccccc34)NC(=O)[C@H](CNC(=N)N)NC(=O)[C@@H](Cc3ccccc3)NC(=O)[C@H](Cc3c[nH]cn3)NC1=O)C(=O)N[C@@H](C)C(=O)N[C@@H](Cc1c[nH]cn1)C(=O)N[C@H](Cc1ccccc1)C(=O)N[C@@H](CNC(=N)N)C(=O)N[C@@H](Cc1c[nH]c3ccccc13)C(=O)N2 [Chem. 42, c[c[Cys-Ala-His-D-Phe-AGP-Trp- Cys]-Ala-His-D-Phe-AGP-Trp]] | ≤ 5.00 | < 6.00 |  | < 7.00 |  |  | 
11 | C[C@@H]1NC(=O)[C@H](CC(=O)O)NC(=O)[C@H](CC(=O)O)NC(=O)[C@H](C)NC(=O)[C@@H]2CSSC[C@H](NC(=O)[C@H](Cc3c[nH]c4ccccc34)NC1=O)C(=O)N1CSC[C@H]1C(=O)N[C@@H](Cc1c[nH]cn1)C(=O)N[C@H](Cc1ccccc1)C(=O)N[C@@H](Cc1c[nH]cn1)C(=O)N[C@@H](Cc1c[nH]c3ccccc13)C(=O)N2 [Chem. 106, c[c[Cys-THAZ-His-D-Phe-His-Trp- Cys]-Ala-Asp-Asp-Ala-Trp]] (cyclo(ADDAWC[Thz]H[dF]HWC); disulfide 6-12) |  |  | >10 |  |  | 7.98 | < 7.00
12 | C[C@@H]1NC(=O)[C@H](CCC(=O)O)NC(=O)[C@H](CC(=O)O)NC(=O)[C@H](C)NC(=O)[C@@H]2CSSC[C@H](NC(=O)[C@H](Cc3c[nH]c4ccccc34)NC1=O)C(=O)N1CSC[C@H]1C(=O)N[C@@H](Cc1c[nH]cn1)C(=O)N[C@H](Cc1ccccc1)C(=O)N[C@@H](Cc1c[nH]cn1)C(=O)N[C@@H](Cc1c[nH]c3ccccc13)C(=O)N2 [Chem. 107, c[c[Cys-THAZ-His-D-Phe-His-Trp- Cys]-Ala-Asp-Glu-Ala-Trp]] (cyclo(ADEAWC[Thz]H[dF]HWC); disulfide 6-12) |  |  | >10 |  |  | 7.98 | < 7.00
13 | C[C@@H]1NC(=O)[C@H](CC(=O)O)NC(=O)[C@H](CCC(=O)O)NC(=O)[C@H](C)NC(=O)[C@@H]2CSSC[C@H](NC(=O)[C@H](Cc3c[nH]c4ccccc34)NC1=O)C(=O)N1CSC[C@H]1C(=O)N[C@@H](Cc1c[nH]cn1)C(=O)N[C@H](Cc1ccccc1)C(=O)N[C@@H](Cc1c[nH]cn1)C(=O)N[C@@H](Cc1c[nH]c3ccccc13)C(=O)N2 [Chem. 108, c[c[Cys-THAZ-His-D-Phe-His-Trp- Cys]-Ala-Glu-Asp-Ala-Trp]] (cyclo(AEDAWC[Thz]H[dF]HWC); disulfide 6-12) |  |  | >40 |  |  |  | < 7.00
